Source: ChEMBL document CHEMBL3352151, “In vitro and in vivo antibacterial evaluation and mechanistic study of ornithine based small cationic lipopeptides against antibiotic resistant clinical isolates” (Eur J Med Chem, 2014)
Values after ≈ are worked out from the molar mass of the structure shown. Square brackets hold non-standard residues; d marks the D form. Peptide text beside a SMILES is read from it. * marks the point of attachment. Palmitoyl = CCCCCCCCCCCCCCCC(=O)*; Myristoyl = CCCCCCCCCCCCCC(=O)*; Orn = NCCC[CH](N)C(=O)O

Tests used:
[1] = test system: Enterococcus faecium; test: Antibacterial activity against clinical isolates of Enterococcus faecium GMCH/B0102 after overnight incubation by microdilution broth assay; type: functional
[2] = test system: Acinetobacter baumannii; test: Antibacterial activity against clinical isolates of Acinetobacter baumannii GMCH/B0083 after overnight incubation by microdilution broth assay; type: functional
[3] = test system: Staphylococcus epidermidis; test: Antibacterial activity against clinical isolates of ampicillin-resistant Staphylococcus epidermidis GMCH/R-Amp008 after overnight incubation by microdilution broth assay; type: functional
[4] = test system: Escherichia coli; test: Antibacterial activity against clinical isolates of Escherichia coli PGI/DML02250 after overnight incubation by microdilution broth assay; type: functional
[5] = test system: Klebsiella pneumoniae; test: Antibacterial activity against clinical isolates of Klebsiella pneumoniae GMCH/B0127 after overnight incubation by microdilution broth assay; type: functional
[6] = test system: Staphylococcus epidermidis; test: Antibacterial activity against clinical isolates of Staphylococcus epidermidis GMCH/B0057 after overnight incubation by microdilution broth assay; type: functional
[7] = test system: Haemophilus influenzae; test: Antibacterial activity against clinical isolates of ciprofloxacin-resistant Haemophilus influenzae PGI/DML01744 after overnight incubation by microdilution broth assay; type: functional
[8] = test system: Pseudomonas aeruginosa; test: Antibacterial activity against clinical isolates of streptomycin-resistant Pseudomonas aeruginosa PGI/DML01991 after overnight incubation by microdilution broth assay; type: functional
[9] = test system: Acinetobacter baumannii; test: Antibacterial activity against clinical isolates of imipenem-resistant Acinetobacter baumannii GMCH/R-Imi003 after overnight incubation by microdilution broth assay; type: functional
[10] = test system: Staphylococcus aureus; test: Antibacterial activity against clinical isolates of Staphylococcus aureus PGI/DML03054 after overnight incubation by microdilution broth assay; type: functional
[11] = test system: Staphylococcus aureus; test: Antibacterial activity against clinical isolates of methicillin-resistant Staphylococcus aureus PGI/DML03149 after overnight incubation by microdilution broth assay; type: functional
[12] = Cytotoxicity against human HaCaT cells assessed as cell viability at 100 ug/ml after 18 hrs by MTT assay; type: cell-based; settings: read-out: Activity
[13] = Cytotoxicity against human HaCaT cells assessed as cell viability at 500 ug/ml after 18 hrs by MTT assay; type: cell-based; settings: read-out: Activity
[14] = test system: Escherichia coli; test: Antibacterial activity against clinical isolates of imipenem-resistant Escherichia coli PGI/DML02292 after overnight incubation by microdilution broth assay; type: functional
[15] = test system: Enterococcus faecalis; test: Antibacterial activity against clinical isolates of gentamicin-resistant Enterococcus faecalis GMCH/R-Gen011 after overnight incubation by microdilution broth assay; type: functional
[16] = test system: Enterococcus faecium; test: Antibacterial activity against clinical isolates of penicillin-resistant Enterococcus faecium GMCH/R-Pen003 after overnight incubation by microdilution broth assay; type: functional
[17] = test system: Haemophilus influenzae; test: Antibacterial activity against clinical isolates of Haemophilus influenzae PGI/DML01751 after overnight incubation by microdilution broth assay; type: functional
[18] = test system: Enterococcus faecalis; test: Antibacterial activity against clinical isolates of Enterococcus faecalis GMCH/B0091 after overnight incubation by microdilution broth assay; type: functional
[19] = test system: Streptococcus pneumoniae; test: Antibacterial activity against clinical isolates of Streptococcus pneumoniae PGI/DML02468 after overnight incubation by microdilution broth assay; type: functional
[20] = test system: Pseudomonas aeruginosa; test: Antibacterial activity against clinical isolates of Pseudomonas aeruginosa PGI/DML02084 after overnight incubation by microdilution broth assay; type: functional
[21] = test system: Streptococcus pneumoniae; test: Antibacterial activity against clinical isolates of erythromycin-resistant Streptococcus pneumoniae PGI/DML02213 after overnight incubation by microdilution broth assay; type: functional
[22] = test system: Klebsiella pneumoniae; test: Antibacterial activity against clinical isolates of kanamycin-resistant Klebsiella pneumoniae GMCH/R-Kan006 after overnight incubation by microdilution broth assay; type: functional

Compound | MIC [1] [µg/mL] | MIC [2] [µg/mL] | MIC [3] [µg/mL] | MIC [4] [µg/mL] | MIC [5] [µg/mL] | MIC [6] [µg/mL] | MIC [7] [µg/mL] | MIC [8] [µg/mL] | MIC [9] [µg/mL] | MIC [10] [µg/mL] | MIC [11] [µg/mL] | viability at 18 h, 100 ug/ml [12] [%] | viability at 18 h, 500 ug/ml [13] [%] | MIC [14] [µg/mL] | MIC [15] [µg/mL] | MIC [16] [µg/mL] | MIC [17] [µg/mL] | MIC [18] [µg/mL] | MIC [19] [µg/mL] | MIC [21] [µg/mL] | also measured
CCCCCCCCCCCCCCCC(=O)NC(CCCN)C(=O)NC(CCCN)C(=O)NC(CCCN)C(=O)NC(CCCN)C(N)=O (stereo not drawn) (Palmitoyl-[Orn][Orn][Orn][Orn]-NH2; configuration not given here) | 3.5 (≈ 4.92 µM) | 6.5 (≈ 9.13 µM) | 2 (≈ 2.81 µM) | 2 (≈ 2.81 µM) | 2 (≈ 2.81 µM) | 2.5 (≈ 3.51 µM) | 12.5 (≈ 17.6 µM) | 6.25 (≈ 8.78 µM) | 10 (≈ 14 µM) | 3.1 (≈ 4.35 µM) | 4.5 (≈ 6.32 µM) | > 80 | > 80 | 12.5 (≈ 17.6 µM) | 7.5 (≈ 10.5 µM) | 3.5 (≈ 4.92 µM) | 7.5 (≈ 10.5 µM) | 3.5 (≈ 4.92 µM) | 2.5 (≈ 3.51 µM) | 10.5 (≈ 14.7 µM) | MIC [20]: 3 µg/mL (≈ 4.21 µM); MIC [22]: 5.5 µg/mL (≈ 7.72 µM)
CCCCCCCCCCCCCCCC(=O)NC(CCCN)C(=O)NC(CCCN)C(=O)NC(CCCN)C(N)=O (stereo not drawn) | 3 (≈ 5.02 µM) | 4 (≈ 6.69 µM) | 5.5 (≈ 9.2 µM) | 5.5 (≈ 9.2 µM) | 3.5 (≈ 5.85 µM) | 4 (≈ 6.69 µM) | 5.5 (≈ 9.2 µM) | 3.1 (≈ 5.18 µM) | 5.5 (≈ 9.2 µM) | 5 (≈ 8.36 µM) | 4.5 (≈ 7.53 µM) | > 80 | > 80 | 6.25 (≈ 10.5 µM) | 5 (≈ 8.36 µM) | 5 (≈ 8.36 µM) | 5 (≈ 8.36 µM) | 3.1 (≈ 5.18 µM) | 3.1 (≈ 5.18 µM) | 3.5 (≈ 5.85 µM) | MIC [20]: 2.5 µg/mL (≈ 4.18 µM); MIC [22]: 3.1 µg/mL (≈ 5.18 µM)
CCCCCCCCCCCCCCCCCC(=O)NC(CCCN)C(=O)NC(CCCN)C(=O)NC(CCCN)C(N)=O (stereo not drawn) | 4.5 (≈ 7.19 µM) | 6.5 (≈ 10.4 µM) | 5 (≈ 7.99 µM) | 10 (≈ 16 µM) | 3.5 (≈ 5.59 µM) | 7.5 (≈ 12 µM) | 7.5 (≈ 12 µM) | 4.5 (≈ 7.19 µM) | 4.5 (≈ 7.19 µM) | 6.2 (≈ 9.91 µM) | 5.5 (≈ 8.79 µM) | > 80 | > 80 | 7.5 (≈ 12 µM) | 6.25 (≈ 9.98 µM) | 7.5 (≈ 12 µM) | 10 (≈ 16 µM) | 2.5 (≈ 3.99 µM) | 2.5 (≈ 3.99 µM) | 5 (≈ 7.99 µM) | MIC [20]: 1.5 µg/mL (≈ 2.4 µM); MIC [22]: 7.5 µg/mL (≈ 12 µM)
CCCCCCCCCC(=O)N[C@@H](Cc1c[nH]c2ccccc12)C(=O)N[C@H](CC(N)=O)C(=O)N[C@@H](CC(=O)O)C(=O)N[C@@H]1C(=O)NCC(=O)N[C@@H](CCCN)C(=O)N[C@@H](CC(=O)O)C(=O)N[C@H](C)C(=O)N[C@@H](CC(=O)O)C(=O)NCC(=O)N[C@H](CO)C(=O)N[C@@H]([C@H](C)CC(=O)O)C(=O)N[C@@H](CC(=O)c2ccccc2N)C(=O)O[C@@H]1C | 2 (≈ 1.23 µM) | – | 1.5 (≈ 0.926 µM) | – | – | 0.5 (≈ 0.309 µM) | – | – | – | 0.7 (≈ 0.432 µM) | 1.25 (≈ 0.771 µM) | – | – | – | 1.5 (≈ 0.926 µM) | 2.5 (≈ 1.54 µM) | – | 1.75 (≈ 1.08 µM) | 1.25 (≈ 0.771 µM) | 1.5 (≈ 0.926 µM) | –
CCCCCCCCCCCCCC(=O)NC(CCCN)C(=O)NC(CCCN)C(=O)NC(CCCN)C(=O)NC(CCCN)C(N)=O (stereo not drawn) (Myristoyl-[Orn][Orn][Orn][Orn]-NH2; configuration not given here) | 4 (≈ 5.85 µM) | 5 (≈ 7.31 µM) | 4.25 (≈ 6.21 µM) | 2.5 (≈ 3.66 µM) | 4.5 (≈ 6.58 µM) | 3.5 (≈ 5.12 µM) | 10 (≈ 14.6 µM) | 3 (≈ 4.39 µM) | 5.5 (≈ 8.04 µM) | 4.5 (≈ 6.58 µM) | 5 (≈ 7.31 µM) | > 80 | > 80 | 10 (≈ 14.6 µM) | 3.5 (≈ 5.12 µM) | 5.5 (≈ 8.04 µM) | 12.5 (≈ 18.3 µM) | 2 (≈ 2.92 µM) | 5.5 (≈ 8.04 µM) | 7.5 (≈ 11 µM) | MIC [20]: 3.1 µg/mL (≈ 4.53 µM); MIC [22]: 6.25 µg/mL (≈ 9.14 µM)
